Assay results reported in US20080171051A1, “Cancer Treatment” (priority 2003, published 2008).

How the values were obtained:
[1] = system: HCT116p53+/+ cells; assay: MTT cell viability assay, HCT116 p53 wild type cells; type: cell-based, human; conditions: for synergy with CH-11 (RI from MTT): HCT116 p53 wild-type, drug 24 hours then CH-11 200 ng/ml for 48 hours; for effect on cell viability: HCT116 cells, presence or absence of drug; for IC60(72h) dose: HCT116p53+/+ cells
Experimental: (§1) Cell Viability Assays. […] To investigate drug-induced Fas-mediated apoptosis, cells were seeded at 2,000-5,000 cells per well on 96-well plates. […] To assess chemotherapy/siRNA interactions, 20,000-50,000 cells were seeded per well on 24-well plates. Twenty-four hours later, the cells were transfected with FLIP-targeted (FT) or scrambled siRNA (SC). […] MTT (0.5 mg/ml) was added to each well and the cells were incubated at 37° C. for a further 2 hours. The culture medium was removed and formazan crystals reabsorbed in 200 μl (96-well) or 1 ml (24-well) DMSO. Cell viability was determined by reading the absorbance of each well at 570 nm using a microplate reader (Molecular Devices, Wokingham, England).
(§2) siRNA transfections. FLIP-targeted siRNA was designed using the Ambion siRNA target finder and design tool (www.ambion.com/techlib/misc/siRNA_finder.html) to inhibit both splice variants of c-FLIP. Both c-FLIP-targeted (FT) and scrambled control (SC) siRNA were obtained from Xeragon (Germantown, Md.).
(§3) Statistical Analyses. The nature of the interaction between the chemotherapeutic drugs and FLIP-targeted siRNAs was determined by calculating the combination index (CI) according to the method of Chou and Talalay (14). CI values were calculated from isobolograms generated using the CalcuSyn software programme (Microsoft Windows). […] An unpaired two-tailed t test was used to determine the significance of changes in levels of apoptosis between different treatment groups.

[2] = system: HCT116p53-/- cells; assay: MTT cell viability assay, HCT116 p53 null cells; type: cell-based, human; conditions: for synergy with CH-11 (RI from MTT): HCT116 p53 null, drug 24 hours then CH-11 200 ng/ml for 48 hours
Experimental: as §1, §2, §3

[3] = system: Fas; assay: Western blot analysis of Fas expression in MCF-7 cells; type: cell-based; conditions: 72 hours after IC60 dose
Experimental: (§4) Western Blotting. Western blots were performed as previously described (Longley et al., 2002). The Fas/CD95, Bcl-2 and BID (Santa Cruz Biotechnology, Santa Cruz, Calif.), caspase 8 (Oncogene Research Products, Darmstadt, Germany), PARP (Pharmingen, BD Biosciences, Oxford, England), c-FLIP (NF-6, Alexis, Bingham UK) DcR3 (Imgenex, San Diego, Calif.) mouse monoclonal antibodies were used in conjunction with a horseradish peroxidase (HRP)-conjugated sheep anti-mouse secondary antibody (Amersham, Little Chalfont, Buckinghamshire, England). FasL rabbit polyclonal antibody (Santa Cruz Biotechnology) was used in conjunction with an HRP-conjugated donkey anti-rabbit secondary antibody (Amersham). Equal loading was assessed using a β-tubulin mouse monoclonal primary antibody (Sigma).

[4] = system: MCF-7 cells; type: cell-based; conditions: alone or in combination with 5-FU (data not shown)
Experimental: Cell Viability Assays. […] To assess chemotherapy/siRNA interactions, 20,000-50,000 cells were seeded per well on 24-well plates. Twenty-four hours later, the cells were transfected with FLIP-targeted (FT) or scrambled siRNA (SC). Four hours after transfection, the cells were treated with a range of concentrations of each drug for a further 72-96 hours. MTT (0.5 mg/ml) was added to each well and the cells were incubated at 37° C. for a further 2 hours. […] FLIP-targeted siRNA was designed using the Ambion siRNA target finder and design tool (www.ambion.com/techlib/misc/siRNA_finder.html) to inhibit both splice variants of c-FLIP. Both c-FLIP-targeted (FT) and scrambled control (SC) siRNA were obtained from Xeragon (Germantown, Md.). The FT siRNA sequence used was: [NT] The FL siRNA sequence used was: [NT] The control non-silencing siRNA sequence (SC) used was: [NT] siRNA transfections were performed on sub-confluent cells incubated in Optimem medium using the oligofectamine reagent (both from Life Technologies Inc) according to the manufacturer's instructions.

[5] = system: HCT116p53+/+ cells; assay: Flow cytometric analysis of apoptosis, HCT116p53+/+ cells; type: cell-based, human; conditions: for cells in the sub-G0/G1 apoptotic fraction: 0.5 nM siRNA, no drug, 5 μM 5-FU or 1 μM oxaliplatin for 48 hours
Experimental: (§5) Flow Cytometric Analysis. Cells were seeded at 1×10^5 per well of a 6-well tissue culture plate. […] DNA content of harvested cells was evaluated after propidium iodide staining of cells using the EPICS XL Flow Cytometer (Coulter, Miami, Fla.).
(§6) siRNA transfections. FLIP-targeted siRNA was designed using the Ambion siRNA target finder and design tool (www.ambion.com/techlib/misc/siRNA_finder.html) to inhibit both splice variants of c-FLIP. Both c-FLIP-targeted (FT) and scrambled control (SC) siRNA were obtained from Xeragon (Germantown, Md.). The FT siRNA sequence used was: […]. The FL siRNA sequence used was: […]. The control non-silencing siRNA sequence (SC) used was: […]. siRNA transfections were performed on sub-confluent cells incubated in Optimem medium using the oligofectamine reagent (both from Life Technologies Inc) according to the manufacturer's instructions.

[6] = system: HCT116p53-/- cells; assay: Flow cytometric analysis of apoptosis, HCT116p53-/- cells; type: cell-based, human; conditions: for cells in the sub-G0/G1 fraction (apoptosis): HCT116p53-/- cells, 1 nM siRNA, no drug, 5 μM 5-FU, 5 μM oxaliplatin or 1 μM CPT-11, 72 hours
Experimental: as §5, §6

[7] = system: c-FLIPL-overexpressing HCT116p53+/+ cell lines (HFL17, HFL24); assay: Growth inhibition (MTT) in c-FLIPL-overexpressing HCT116p53+/+ cell lines versus HLacZ; type: cell-based, human
Experimental: as §1

[8] = adjuvant setting of colorectal cancer; cited from earlier work
[9] = system: c-FLIP; assay: Western blot of c-FLIP expression after siRNA transfection, HCT116p53+/+ cells; type: cell-based, human; conditions: for down-regulation of c-FLIP expression: nanomolar concentrations
Experimental: as §4
siRNA transfections. FLIP-targeted siRNA was designed using the Ambion siRNA target finder and design tool (www.ambion.com/techlib/misc/siRNA_finder.html) to inhibit both splice variants of c-FLIP. Both c-FLIP-targeted (FT) and scrambled control (SC) siRNA were obtained from Xeragon (Germantown, Md.). The FT siRNA sequence used was: AAGCAGTCTGTTCAAGGAGCA. The FL siRNA sequence used was: AAGGAACAGCTTGGCGCTCAA. The control non-silencing siRNA sequence (SC) used was: AATTCTCCGAACGTGTCACGT. siRNA transfections were performed on sub-confluent cells incubated in Optimem medium using the oligofectamine reagent (both from Life Technologies Inc) according to the manufacturer's instructions.

[10] = system: c-FLIP; assay: Western blot of c-FLIP expression after siRNA transfection, H630 cells; type: cell-based; conditions: 1 nM, 24 hours
Experimental: as §4
(§7) siRNA transfections. FLIP-targeted siRNA was designed using the Ambion siRNA target finder and design tool (www.ambion.com/techlib/misc/siRNA_finder.html) to inhibit both splice variants of c-FLIP. Both c-FLIP-targeted (FT) and scrambled control (SC) siRNA were obtained from Xeragon (Germantown, Md.). The FT siRNA sequence used was: AAGCAGTCTGTTCAAGGAGCA. The FL siRNA sequence used was: AAGGAACAGCTTGGCGCTCAA. […]

[11] = system: RKO cells; assay: MTT cell viability assay, RKO cells; type: cell-based; conditions: absence of chemotherapy, read-out: IC50(72h) dose
Experimental: as §1, §2
(§8) Statistical Analyses. The nature of the interaction between the chemotherapeutic drugs and FLIP-targeted siRNAs was determined by calculating the combination index (CI) according to the method of Chou and Talalay (14). CI values were calculated from isobolograms generated using the CalcuSyn software programme (Microsoft Windows). […]

[12] = system: c-FLIP; assay: Western blot of c-FLIP expression after siRNA transfection, HCT116p53-/- cells; type: cell-based, human; conditions: 1 nM FT siRNA
Experimental: as §4, §7

[13] = system: c-FLIP; assay: Western blot of c-FLIP expression after siRNA transfection, RKO cells; type: cell-based; conditions: 1 nM, 24 hours
Experimental: as §4, §7

[14] = system: c-FLIP; assay: Western blot of c-FLIP expression after siRNA transfection, MCF-7 cells; type: cell-based; conditions: 10 nM FT siRNA
Experimental: as §4, §7

[15] = system: H630 cells; assay: MTT cell viability assay, H630 cells; type: cell-based; conditions: absence of chemotherapy, read-out: IC50(72h) dose
Experimental: as §1, §2, §8

[16] = biological target: Fas death receptor (UniProt P25445); assay: cell-based or functional assay
Fas death receptor, sequence (P25445 26-335 limits assumed): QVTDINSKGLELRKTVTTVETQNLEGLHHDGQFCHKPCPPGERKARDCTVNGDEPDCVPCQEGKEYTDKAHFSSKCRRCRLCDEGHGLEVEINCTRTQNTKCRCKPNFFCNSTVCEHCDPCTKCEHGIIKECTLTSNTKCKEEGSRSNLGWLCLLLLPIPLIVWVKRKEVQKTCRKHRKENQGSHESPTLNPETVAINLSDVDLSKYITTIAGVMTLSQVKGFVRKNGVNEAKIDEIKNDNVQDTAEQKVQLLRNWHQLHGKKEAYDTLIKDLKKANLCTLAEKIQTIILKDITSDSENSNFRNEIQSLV

[17] = system: HLacZ cell line; assay: Flow cytometric analysis of apoptosis, HLacZ control cell line; type: cell-based, human; conditions: 5 μM 5-FU for 72 hours
Experimental: (§9) Generation of c-FLIP overexpressing cell lines. c-FLIPL and c-FLIPS coding regions were PCR amplified and ligated into the pcDNA/V5-His TOPO vector according to the manufacturer's instructions (Life Technologies Inc.). HCT116p53^+/+ cells were co-transfected with 10 μg of each c-FLIP expression construct and 1 μg of a construct expressing a puromycin resistance gene (pIRESpuro3, Clontech) using GeneJuice. Stably transfected HCT116 cells were selected and maintained in medium supplemented with 1 μg/ml puromycin (Life Technologies Inc.). Stable overexpression of c-FLIP was assessed by Western blot analysis.
as §5

[18] = system: HFL17 cells; assay: Flow cytometric analysis of apoptosis, HFL17 cells (c-FLIPL-overexpressing HCT116); type: cell-based, human; conditions: 5 μM 5-FU for 72 hours
Experimental: as §9, §5

[19] = patients with metastatic colorectal cancer; cited from earlier work
[20] = system: HFL24 cells; assay: Flow cytometric analysis of apoptosis, HFL24 cells (c-FLIPL-overexpressing HCT116); type: cell-based, human; conditions: 5 μM 5-FU for 72 hours
Experimental: as §9, §5

For `Cc1nc2ccc(CN(C)c3ccc(C(=O)N[C@@H](CCC(=O)O)C(=O)O)s3)cc2c(=O)[nH]1` [TDX, tomudex], the “synergy with CH-11 (RI from MTT)” value [1] was “significant synergy”, the “synergy with CH-11 (RI from MTT)” value [2] was “synergy” and the “up-regulation of Fas expression” value [3] was about 7 fold.

With “SC siRNA: control non-silencing siRNA; sequence AATTCTCCGAACGTGTCACGT (AATTCTCCGAACGTGTCACGT; chemistry not given here)” the “effect on cell viability” value [4] was “no effect on cell viability”, the “effect on cell viability” value [1] was “no significant effect on cell viability” and the “effect on cell viability” value ([1]; listed as Control siRNA) was “no effect on cell viability”. The “cells in the sub-G0/G1 apoptotic fraction” value [5] was about 9% and the “cells in the sub-G0/G1 fraction (apoptosis)” value [6] was about 9%.

In the case of `O=C1[O][Pt]2([NH][C@@H]3CCCC[C@H]3[NH]2)[O]C1=O` [OXA, oxaliplatin], the “IC60(72h) dose” value [1] is reported as 1000 nM and the “increase in the IC50(72h) dose caused by c-FLIPL overexpression” value [7] is reported as 1.7-2.0 fold.

In the case of 5-FU/leucovorin, the 3-year survival [8] is listed as 72.9%.

With “FT siRNA: siRNA inhibiting both splice variants of c-FLIP; sequence AAGCAGTCTGTTCAAGGAGCA (AAGCAGTCTGTTCAAGGAGCA; chemistry not given here)” the “down-regulation of c-FLIP expression” value [9] was “potently down-regulated expression of both c-FLIP splice variants”, the “time at which both c-FLIP splice forms were efficiently down-regulated” value ([9]; post-transfection, 1 and 10 nM FT siRNA) was 8 h and the “down-regulation of c-FLIP protein” value [10] was “down-regulated c-FLIP protein”. For the same compound, the IC50 [11] was about 5 nM, the IC50 ([1]; HCT116 p53 wild type cells, absence of chemotherapy, read-out: IC50(72h) dose) was about 0.7 nM and the “down-regulation of c-FLIP expression” value [12] was “effectively down-regulated”. For the same compound, the IC50 ([2]; HCT116 p53 null cells, absence of chemotherapy, read-out: IC50(72h) dose) was about 2.5 nM, the “cells in the sub-G0/G1 apoptotic fraction” value [5] was about 26% and the “down-regulation of c-FLIP protein” value [13] was “down-regulated c-FLIP protein”. For the same compound, the “down-regulation of c-FLIP expression” value [14] was “potently down-regulated expression of both c-FLIP splice variants”, the “cells in the sub-G0/G1 fraction (apoptosis)” value [6] was about 14% and the IC50 [15] was about 25 nM.

In the case of “FL siRNA: siRNA specifically down-regulating c-FLIPL; sequence AAGGAACAGCTTGGCGCTCAA (AAGGAACAGCTTGGCGCTCAA; listed as DNA, chemistry not given here)”, the “down-regulation of c-FLIP expression” value [9] is reported as “specifically down-regulate the long splice form without affecting expression of c-FLIPS” and the “apoptosis in the absence of chemotherapy” value ([5]; PARP cleavage and flow cytometry (data not shown)) is reported as “induced apoptosis”.

Compound agonistic Fas monoclonal antibody CH-11 has a cells in the sub-G1/G0 apoptotic phase (flow cytometry, MCF-7, 5-FU 72 h then 250 ng/ml CH-11 24 h) [16] of 55%, a cells in the sub-G1/G0 apoptotic phase (flow cytometry, MCF-7, OXA then CH-11) [16] of 50% and a cells in the sub-G1/G0 apoptotic phase (flow cytometry, MCF-7, TDX 72 h then 250 ng/ml CH-11 24 h) [16] of 60%.

For `O=c1[nH]cc(F)c(=O)[nH]1` [5-FU], the “cells in the sub-G1/G0 apoptotic fraction” value [17] was about 41%, the “cells in the sub-G1/G0 apoptotic fraction” value [18] was about 15% and the “IC60(72h) dose” value [1] was 5000 nM. For the same compound, the response rates [19] was 10-15%, the “up-regulation of Fas expression” value [3] was about 12 fold and the “cells in the sub-G1/G0 apoptotic fraction” value [20] was about 17%.

For `CCc1c2c(nc3ccc(OC(=O)N4CCC(N5CCCCC5)CC4)cc13)-c1cc3c(c(=O)n1C2)COC(=O)[C@]3(O)CC` [CPT-11, irinotecan], the “synergy with CH-11 (RI from MTT)” value [1] was “significant synergy”, the “synergy with CH-11 (RI from MTT)” value [2] was “synergy” and the “synergy with CH-11 (propidium iodide staining)” value ([6]; HCT116 p53 null, drug 24 hours then CH-11 50 ng/ml 24 hours) was “significant synergy”.
